Test results as given in patent publication EP4671262A1, “NOVEL PEPTIDE EXHIBITING SKIN CONDITION IMPROVEMENT ACTIVITY AND COSMETIC COMPOSITION CONTAINING SAME” (Daebong LS Co., Ltd., priority 2023, dated 2024).

How the values were obtained:
[1] = tested on: B16F10 cells; experiment: Melanin synthesis inhibition in α-MSH-stimulated melanocytes; type: cell-based, Mouse; details: 72 hours, α-MSH alone = 100
Description: Mouse-derived melanocytes (B16F10 cells) were obtained from the American Type Culture Collection (ATCC) and used. The cells were cultured in Dulbecco's Modified Eagle's Medium (DMEM) supplemented with 1% penicillin-streptomycin and 10% fetal bovine serum (FBS) at 37 °C in a 5% CO2 incubator, and subcultured every 3 to 4 days.
B16F10 cells were seeded at 6.0 × 10^4 cells/well in a 6-well plate and cultured for 24 hours at 37 °C in a 5% CO2 incubator. The culture medium was then replaced with phenol red-free, serum-free DMEM, followed by treatment with α-MSH, a melanin production-inducing hormone, and the peptide from the above Preparation Example at concentrations ranging from 1 to 100 µM. The cells were incubated for 72 hours, after which they were collected and lysed with 1 N NaOH in an 80 °C heating block to dissolve intracellular melanin. The absorbance of the resulting solution was measured at 490 nm. The control group was treated with arbutin at a concentration of 500 µg/mL.

[2] = tested on: NHDF cells; experiment: Procollagen Type I Peptide (PIP) production, EIA of culture supernatant; type: cell-based, Human; details: 24 hours, untreated group = 100
Description: Normal Human Dermal Fibroblasts (NHDF) were obtained from Lonza (Lonza Walkersville, Inc.) and cultured in FBM (Fibroblast Basal Medium) supplemented with 0.1% hFGF-B, insulin, GA-1000, and 2% FBS at 37°C in a 5% CO2 incubator. Subculture was performed every 2 to 3 days.
NHDF cells were seeded at 2.0 × 10^4 cells/well in a 24-well plate and incubated for 24 hours at 37°C in a 5% CO2 incubator. After incubation, the culture medium was replaced with serum-free FBM, and the peptide prepared in the above Example was applied at concentrations of 1-100 µM, followed by incubation for 24 hours. The supernatant from each experimental group was collected, and the amount of procollagen released into the medium was measured. The positive control group was treated with ascorbic acid at a concentration of 0.001 v/v%. Measurement of procollagen levels was performed using a Procollagen Type I Peptide (PIP) EIA Kit (Takara Biomedical Co.) according to the manufacturer's protocol. The quantitative results of procollagen type I peptide production following treatment with the peptide of the Example are shown in Table 2 and Fig. 3.

[3] = tested on: HaCaT cells; experiment: Hyaluronic acid (HA) production, ELISA of culture supernatant; type: cell-based, human; details: 24 hours, untreated group = 100
Description: The HaCaT human keratinocyte cell line was obtained from Cell Line Service GmbH (Germany). The cells were cultured in DMEM containing 1% penicillin-streptomycin and 10% fetal bovine serum (FBS) at 37°C in a 5% CO2 incubator, and subculture was performed every 2 to 3 days.
HaCaT cells were seeded at 1.0 × 10^5 cells/well in a 24-well plate and incubated for 24 hours at 37°C in a 5% CO2 incubator. After incubation, the culture medium was replaced with serum-free DMEM, and the peptide prepared in the above Example was applied at concentrations of 50-200 µM, followed by incubation for 24 hours. The supernatant from each experimental group was collected, and the amount of hyaluronic acid (HA) released into the medium was measured. The positive control group was treated with N-acetylglucosamine at a concentration of 10 mM. Measurement of hyaluronic acid production was conducted using a Hyaluronic Acid ELISA Kit (Cusabio Biotechnology Co., Ltd.) following the manufacturer's protocol.

Molecule: OC[C@H]1O[C@@H](Oc2ccc(O)cc2)[C@H](O)[C@@H](O)[C@@H]1O [Arbutin, arbutin]
- Melanin production (%) ([1]; 500 µg/mL (control) with α-MSH (200 nM)): 59.6±0.8%

Molecule: O=C1O[C@H]([C@@H](O)CO)C(O)=C1O [Asc.A, ascorbic acid]
- Procollagen production (%) ([2]; 10 µg/mL (positive control)): 159.45±3.8%

Molecule: CC(=O)N[C@H]1C(O)O[C@H](CO)[C@@H](O)[C@@H]1O (stereo partly shown) [NAG, N-acetylglucosamine]
- Hyaluronic acid production (%) ([3]; 10 mM (positive control)): 125.52±1.18%

Molecule: Ala-Ala-Gln-Pro-Arg (AAQPR; printed: Ala-Ala-Gln-Pro-Arg)
- Hyaluronic acid production (%) ([3]; 50 µM): 107.14±1.08%
- Hyaluronic acid production (%) ([3]; 100 µM): 130.93±0.59%
- Hyaluronic acid production (%) ([3]; 200 µM): 136.91±6.87%
- Procollagen production (%) ([2]; 1 µM): 105.45±3.15%
- Procollagen production (%) ([2]; 10 µM): 129.75±9.74%
- Procollagen production (%) ([2]; 50 µM): 132.64±13.74%
- Procollagen production (%) ([2]; 100 µM): 134.92±1.3%
- Melanin production (%) ([1]; 1 µM with α-MSH (200 nM)): 100.86±4.32%
- Melanin production (%) ([1]; 10 µM with α-MSH (200 nM)): 89.62±2.95%
- Melanin production (%) ([1]; 100 µM with α-MSH (200 nM)): 79.76±4.18%
